pIC50: −log10 of the molar value. Positions of bridges follow the written chain, without caps; N, C: chain ends. Non-standard residues stand in square brackets, D forms with d. Residues, ends and D or L forms follow the SMILES beside them. 1Nal = N[C@@H](Cc1cccc2ccccc12)C(=O)O

What is called pIC50 is −log10 of the IC50, conventionally taken in molar units.

The target in the first test is hNav1.7 (Homo sapiens, UniProt Q15858). Nature of the test: cell-based. The settings on record: Nav1.7 Use IC50.
hNav1.7, sequence (Q15858 whole entry, looked up): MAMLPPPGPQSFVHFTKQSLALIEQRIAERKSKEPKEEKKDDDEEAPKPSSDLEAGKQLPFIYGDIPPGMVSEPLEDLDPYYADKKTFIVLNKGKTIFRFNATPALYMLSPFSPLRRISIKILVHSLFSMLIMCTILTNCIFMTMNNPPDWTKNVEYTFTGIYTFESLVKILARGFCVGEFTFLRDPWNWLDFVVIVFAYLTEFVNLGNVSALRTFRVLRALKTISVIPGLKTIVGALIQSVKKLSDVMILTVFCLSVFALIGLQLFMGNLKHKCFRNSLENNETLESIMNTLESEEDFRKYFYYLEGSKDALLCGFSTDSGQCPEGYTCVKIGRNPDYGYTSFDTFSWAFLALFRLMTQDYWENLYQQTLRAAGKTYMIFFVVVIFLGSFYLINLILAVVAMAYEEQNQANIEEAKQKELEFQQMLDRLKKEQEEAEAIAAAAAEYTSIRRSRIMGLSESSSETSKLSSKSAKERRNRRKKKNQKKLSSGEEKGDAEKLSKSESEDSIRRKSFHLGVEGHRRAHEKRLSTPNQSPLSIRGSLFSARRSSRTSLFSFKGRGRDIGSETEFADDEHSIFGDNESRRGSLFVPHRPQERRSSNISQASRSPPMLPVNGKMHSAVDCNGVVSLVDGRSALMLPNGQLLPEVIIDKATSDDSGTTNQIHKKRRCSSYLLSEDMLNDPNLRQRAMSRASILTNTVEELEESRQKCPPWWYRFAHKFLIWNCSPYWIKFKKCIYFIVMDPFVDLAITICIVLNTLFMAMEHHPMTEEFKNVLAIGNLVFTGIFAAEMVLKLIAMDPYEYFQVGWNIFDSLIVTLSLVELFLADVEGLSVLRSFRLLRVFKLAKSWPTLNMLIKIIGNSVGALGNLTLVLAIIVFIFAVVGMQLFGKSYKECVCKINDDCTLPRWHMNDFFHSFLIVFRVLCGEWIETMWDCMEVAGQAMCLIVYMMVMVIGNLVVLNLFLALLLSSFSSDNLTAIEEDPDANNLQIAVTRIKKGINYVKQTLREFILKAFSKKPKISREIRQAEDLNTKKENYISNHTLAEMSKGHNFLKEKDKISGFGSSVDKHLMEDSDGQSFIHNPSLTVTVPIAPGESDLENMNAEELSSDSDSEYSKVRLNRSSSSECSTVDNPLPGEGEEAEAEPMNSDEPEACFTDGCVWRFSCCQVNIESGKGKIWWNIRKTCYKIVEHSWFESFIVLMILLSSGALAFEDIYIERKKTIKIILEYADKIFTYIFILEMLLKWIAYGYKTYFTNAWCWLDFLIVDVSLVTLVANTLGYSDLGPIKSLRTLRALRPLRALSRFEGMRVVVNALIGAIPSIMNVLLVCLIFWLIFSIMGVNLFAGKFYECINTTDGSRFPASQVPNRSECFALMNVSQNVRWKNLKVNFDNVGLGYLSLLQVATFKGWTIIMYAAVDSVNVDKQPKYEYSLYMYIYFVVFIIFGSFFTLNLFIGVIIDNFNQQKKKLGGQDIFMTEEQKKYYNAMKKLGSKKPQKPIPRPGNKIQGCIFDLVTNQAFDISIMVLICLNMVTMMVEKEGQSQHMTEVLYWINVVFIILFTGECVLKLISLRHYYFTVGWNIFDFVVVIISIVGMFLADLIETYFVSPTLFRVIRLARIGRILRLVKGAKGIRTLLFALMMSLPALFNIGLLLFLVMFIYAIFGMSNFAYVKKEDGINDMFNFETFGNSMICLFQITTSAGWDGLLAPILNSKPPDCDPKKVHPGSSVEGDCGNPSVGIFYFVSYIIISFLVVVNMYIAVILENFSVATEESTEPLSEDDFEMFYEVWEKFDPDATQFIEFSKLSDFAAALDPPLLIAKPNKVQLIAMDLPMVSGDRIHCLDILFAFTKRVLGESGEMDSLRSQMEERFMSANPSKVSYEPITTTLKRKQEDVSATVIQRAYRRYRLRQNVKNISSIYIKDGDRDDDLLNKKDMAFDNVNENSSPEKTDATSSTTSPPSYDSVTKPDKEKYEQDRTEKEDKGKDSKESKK
The molecule `CC[C@@H]1NC(=O)CNC(=O)[C@H](CC(C)C)NC(=O)[C@@H](NC(=O)[C@@H](N)CC(=O)O)CSSC[C@@H]2NC(=O)[C@@H]3CSSC[C@@H](C(=O)N[C@@H](CCCCN)C(=O)N[C@@H](Cc4ccc(O)cc4)C(=O)N[C@H](C(=O)N[C@@H](Cc4ccccc4)C(N)=O)C(C)C)NC(=O)[C@H](Cc4c[nH]c5ccccc45)NC(=O)[C@H](CCCCN)NC(=O)[C@H](Cc4cnc[nH]4)NC(=O)[C@H]([C@@H](C)O)NC(=O)[C@H](CCCNC(=N)N)NC(=O)[C@H](CO)NC(=O)[C@H](CSSC[C@H](NC(=O)[C@H](CCCCN)NC(=O)[C@H](CCCNC(=N)N)NC(=O)[C@H](CCSC)NC1=O)C(=O)N[C@@H]([C@@H](C)CC)C(=O)N1CCC[C@H]1C(=O)N[C@@H](CC(=O)O)C(=O)N[C@@H](CC(N)=O)C(=O)N[C@@H](CC(=O)O)C(=O)N[C@@H](CCCCN)C(=O)N3)NC(=O)[C@H](C(C)C)NC(=O)[C@H](CC(C)C)NC(=O)[C@H](CC(N)=O)NC(=O)[C@@H]1CCCN1C(=O)[C@H](CCCNC(=N)N)NC2=O` [[2-Abu5]GpTx-1(1-34)] had a negative logarithm of the IC50 (pIC50) of 7.08.

The test is the same for the next values; noted with them: read-out: Nav1.7 Use IC50.
Consider `CC[C@H](C)[C@@H]1NC(=O)[C@@H]2CSSC[C@@H]3NC(=O)[C@H](C(C)C)NC(=O)[C@H](CC(C)C)NC(=O)[C@H](CC(N)=O)NC(=O)[C@@H]4CCCN4C(=O)[C@H](CCCNC(=N)N)NC(=O)[C@H](CSSC[C@H](NC(=O)[C@@H](N)CC(=O)O)C(=O)N[C@@H](CC(C)C)C(=O)NCC(=O)N[C@@H](CCSC)C(=O)N[C@@H](CCSC)C(=O)N[C@@H](CCCNC(=N)N)C(=O)N[C@@H](CCCCN)C(=O)N2)NC(=O)[C@H](CSSC[C@@H](C(=O)N[C@@H](CCCCN)C(=O)N[C@@H](Cc2ccc(O)cc2)C(=O)N[C@H](C(=O)N[C@@H](Cc2ccccc2)C(N)=O)C(C)C)NC(=O)[C@H](Cc2c[nH]c4ccccc24)NC(=O)[C@H](CCCCN)NC(=O)[C@H](Cc2c[nH]cn2)NC(=O)[C@H]([C@@H](C)O)NC(=O)[C@H](CCCNC(=N)N)NC(=O)[C@H](CO)NC3=O)NC(=O)[C@H](CCCCN)NC(=O)[C@H](CC(=O)O)NC(=O)[C@H](CC(N)=O)NC(=O)[C@H](CC(=O)O)NC(=O)[C@@H]2CCCN2C1=O` [SEQ ID NO: 268] (H-DCLGMMRKCIPDNDKCCRPNLVCSRTHKWCKYVF-NH2; disulfide 2-17, 9-23, 16-30), for which the pIC50 was 8.70.
Still for that read-out and setting: the same measure for `CC[C@H](C)[C@@H]1NC(=O)[C@@H]2CSSC[C@@H]3NC(=O)[C@H](C(C)C)NC(=O)[C@H](CC(C)C)NC(=O)[C@H](CC(N)=O)NC(=O)[C@@H]4CCCN4C(=O)[C@H](CCCNC(=N)N)NC(=O)[C@H](CSSC[C@H](NC(=O)[C@@H](N)CC(=O)O)C(=O)N[C@@H](CC(C)C)C(=O)NCC(=O)N[C@@H](Cc4ccccc4)C(=O)N[C@@H](CCSC)C(=O)N[C@@H](CCCNC(=N)N)C(=O)N[C@@H](CCCCN)C(=O)N2)NC(=O)[C@H](CSSC[C@@H](C(=O)N[C@@H](CCCCN)C(=O)N[C@@H](Cc2cccc4ccccc24)C(=O)N[C@H](C(=O)N[C@@H](Cc2ccccc2)C(N)=O)C(C)C)NC(=O)[C@H](Cc2c[nH]c4ccccc24)NC(=O)[C@H](CCCCN)NC(=O)[C@H](Cc2c[nH]cn2)NC(=O)[C@H]([C@@H](C)O)NC(=O)[C@H](CCCNC(=N)N)NC(=O)[C@H](CO)NC3=O)NC(=O)[C@H](CCCCN)NC(=O)[C@H](CC(=O)O)NC(=O)[C@H](CC(N)=O)NC(=O)[C@H](CC(=O)O)NC(=O)[C@@H]2CCCN2C1=O` [[1-Nal32]GpTx-1(1-34)] (H-DCLGFMRKCIPDNDKCCRPNLVCSRTHKWCK[1Nal]VF-NH2; disulfide 2-17, 9-23, 16-30): 8.40.
Same read-out and setting: the same measure for `CCCC[C@@H]1NC(=O)[C@H](C)NC(=O)CNC(=O)[C@H](CC(C)C)NC(=O)[C@@H](NC(=O)[C@@H](N)CC(=O)O)CSSC[C@@H]2NC(=O)[C@@H]3CSSC[C@@H](C(=O)N[C@@H](CCCCN)C(=O)N[C@@H](Cc4ccc(O)cc4)C(=O)N[C@H](C(=O)N[C@@H](Cc4ccccc4)C(N)=O)C(C)C)NC(=O)[C@H](Cc4c[nH]c5ccccc45)NC(=O)[C@H](CCCCN)NC(=O)[C@H](Cc4c[nH]cn4)NC(=O)[C@H]([C@@H](C)O)NC(=O)[C@H](CCCNC(=N)N)NC(=O)[C@H](CO)NC(=O)[C@H](CSSC[C@H](NC(=O)[C@H](CCCCN)NC(=O)[C@H](CCCNC(=N)N)NC1=O)C(=O)N[C@@H]([C@@H](C)CC)C(=O)N1CCC[C@H]1C(=O)N[C@@H](CC(=O)O)C(=O)N[C@@H](CC(N)=O)C(=O)N[C@@H](CC(=O)O)C(=O)N[C@@H](CCCCN)C(=O)N3)NC(=O)[C@H](C(C)C)NC(=O)[C@H](CC(C)C)NC(=O)[C@H](CC(N)=O)NC(=O)[C@@H]1CCCN1C(=O)[C@H](CCCNC(=N)N)NC2=O` [[Ala5;Nle6]GpTx-1(1-34)]: 8.00; for `CC[C@H](C)[C@@H]1NC(=O)[C@@H]2CSSC[C@@H]3NC(=O)[C@H](C(C)C)NC(=O)[C@H](CC(C)C)NC(=O)[C@H](CC(N)=O)NC(=O)[C@@H]4CCCN4C(=O)[C@H](CCCNC(=N)N)NC(=O)[C@H](CSSC[C@H](NC(=O)[C@@H](N)CC(=O)O)C(=O)N[C@@H](CC(C)C)C(=O)NCC(=O)N[C@@H](C)C(=O)N[C@@H](Cc4ccccc4)C(=O)N[C@@H](CCCNC(=N)N)C(=O)N[C@@H](CCCCN)C(=O)N2)NC(=O)[C@H](CSSC[C@@H](C(=O)N[C@@H](CCCCN)C(=O)N[C@@H](Cc2ccc(O)cc2)C(=O)N[C@H](C(=O)N[C@@H](Cc2ccccc2)C(N)=O)C(C)C)NC(=O)[C@H](Cc2c[nH]c4ccccc24)NC(=O)[C@H](CCCCN)NC(=O)[C@H](Cc2c[nH]cn2)NC(=O)[C@H](CC(C)C)NC(=O)[C@H](CCCNC(=N)N)NC(=O)[C@H](CO)NC3=O)NC(=O)[C@H](CCCCN)NC(=O)[C@H](CC(=O)O)NC(=O)[C@H](CC(N)=O)NC(=O)[C@H](CC(=O)O)NC(=O)[C@@H]2CCCN2C1=O` [[Ala5;Phe6;Leu26]GpTx-1(1-34)] (H-DCLGAFRKCIPDNDKCCRPNLVCSRLHKWCKYVF-NH2; disulfide 2-17, 9-23, 16-30): 8.40.
The same measure, in the same setting: as for `CC[C@H](C)[C@@H]1NC(=O)[C@@H]2CSSC[C@@H]3NC(=O)[C@H](C(C)C)NC(=O)[C@H](CC(C)C)NC(=O)[C@H](CC(N)=O)NC(=O)[C@@H]4CCCN4C(=O)[C@H](CCCNC(=N)N)NC(=O)[C@H](CSSC[C@H](NC(=O)[C@@H](N)CC(=O)O)C(=O)N[C@@H](CC(C)C)C(=O)NCC(=O)N[C@@H](Cc4ccccc4)C(=O)N[C@@H](CCSC)C(=O)N[C@@H](CCCNC(=N)N)C(=O)N[C@@H](CCCCN)C(=O)N2)NC(=O)[C@H](CSSC[C@@H](C(=O)N[C@@H](CCCCN)C(=O)N[C@@H](Cc2ccc(O)cc2)C(=O)N[C@H](C(=O)N[C@@H](Cc2ccccc2)C(N)=O)C(C)C)NC(=O)[C@H](Cc2c[nH]c4ccccc24)NC(=O)[C@H](CCCCN)NC(=O)[C@H](Cc2c[nH]cn2)NC(=O)[C@H](CCCNC(=N)N)NC(=O)[C@H](CCCNC(=N)N)NC(=O)[C@H](CO)NC3=O)NC(=O)[C@H](CCCCN)NC(=O)[C@H](CC(=O)O)NC(=O)[C@H](CC(N)=O)NC(=O)[C@H](CC(=O)O)NC(=O)[C@@H]2CCCN2C1=O` [[Arg26]GpTx-1(1-34)] (H-DCLGFMRKCIPDNDKCCRPNLVCSRRHKWCKYVF-NH2; disulfide 2-17, 9-23, 16-30), the figure is 8.30.
